Assay results reported in patent US9957246B2, “Prodrugs of tetrahydrocannabinol, compositions comprising prodrugs of tetrahydrocannabinol and methods of using the same” (Zynerba Pharmaceuticals, Inc., priority 2007, dated 2018).

Columns and labels:
[1] = In vitro human skin permeation, flow-through diffusion cells; details: for Flux enhancement: total THC equivalents
[2] = Plasma stability of prodrugs (bioconversion to parent drug); assay type: in vitro ADME
Description: Approximately 1 mg/mL of stock solution of each prodrug was prepared in 100 μL of ethanol and 900 μL of acetonitrile. Next, 10 μL of stock was spiked into 1 mL of plasma and vortexed. The samples were kept sealed in an amber vial and samples were obtained to analyze for bioconversion to parent drug.
An approximated 1 mg/mL stock solution of each prodrug was prepared in 100 μL of ethanol and 900 μL of acetonitrile. Next, 10 μL of stock was spiked into 1 mL of plasma and vortexed. The samples were kept sealed in an amber vial and samples were obtained to analyze for bioconversion to parent drug.
Approximately 1 mg/mL of stock solution of each prodrug was prepared in 100 μL of ethanol and 900 μL of acetonitrile. Ten μL of stock was spiked into 1 mL of plasma and vortexed. The samples were kept sealed in an amber vial and samples were obtained to analyze for bioconversion to parent drug.

[3] = Table 2, 100% PG donor solution, analyte: THC or intact prodrug (PD)
[4] = Table 4, gel formulation, analyte: THC from prodrug
[5] = Table 4, gel formulation, analyte: THC or intact prodrug (PD)
[6] = Table 17, 90:8:2 PG:H2O:IPM donor solution, analyte: THC from prodrug
[7] = Table 17, 90:8:2 PG:H2O:IPM donor solution, analyte: THC or intact prodrug as applied
[8] = Table 17, 90:8:2 PG:H2O:IPM donor solution
[9] = Table 17, 90:8:2 PG:H2O:IPM donor solution, total THC equivalents (THC and/or prodrug)
[10] = Table 3, 1:1:1 PG:ethanol:H2O donor solution, analyte: THC or intact prodrug (PD)
[11] = Table 9, 2.36:1.18:1 pH = 5.5 PG:ethanol:H2O donor solution, analyte: THC or intact prodrug as applied
[12] = Table 19, 90:8:2 PG:H2O:IPM donor solution, analyte: THC or intact prodrug as applied
[13] = Table 3, 1:1:1 PG:ethanol:H2O donor solution
[14] = Table 5, 1:1:1 PG:ethanol:H2O donor solution and higher flow rate
[15] = Table 6, 1:1:1 PG:ethanol:H2O donor solution, receiver fluid 25% aqueous ethanol
[16] = Table 6, 1:1:1 PG:ethanol:H2O donor solution, receiver fluid 40% aqueous PEG 400
[17] = Table 7, 2.36:1.18:1 PG:ethanol:H2O donor solution, analyte: THC or intact prodrug as applied
[18] = Table 8, gel formulation, analyte: THC or intact prodrug as applied
[19] = Table 10, 2.36:1.18:1 pH = 5.5 PG:ethanol:H2O donor solution, analyte: THC or intact prodrug as applied
[20] = Table 13, gel formulation with 40% aqueous PEG 400 receiver fluid, analyte: THC or intact prodrug as applied
[21] = Table 18, 90:8:2 PG:H2O:IPM donor solution, analyte: THC or intact prodrug as applied
[22] = Table 20, 90:8:2 PG:H2O:IPM donor solution (saturated), analyte: THC or intact prodrug as applied

CCCCCc1cc(OC(=O)COCCOCCOCCOC)c2c(c1)OC(C)(C)[C@@H]1CCC(C)=C[C@@H]21 [ALL00117, Δ^9-Tetrahydrocannabinol 3,6,9,12-tetraoxatridecanoyl ester]
24 h skin conc ([1]; Table 2, 100% PG donor solution, analyte: THC from prodrug): 1.1 ± 0.0 µmol/g | 24 h skin conc [1, 3]: 8.9 ± 7.1 µmol/g | 24 h cumulative amt ([1]; Table 4, gel formulation): 1.7 ± 0.0 nmol | Flux ([1]; Table 4, gel formulation): 0.07 ± 0.00 nmol/cm^2/h | 24 h skin conc [1, 4]: 0.7 ± 0.1 µmol/g | 24 h skin conc [1, 5]: 13.8 ± 4.1 µmol/g | 24 h cumulative amt [1, 6]: 0.7 ± 0.7 nmol | 24 h cumulative amt [1, 7]: 3.0 ± 0.3 nmol | 24 h skin conc [1, 7]: 7.3 ± 1.8 µmol/g | Flux [1, 7]: 0.4 ± 0.1 nmol/cm^2/h | Lag time [1, 7]: 15.1 ± 0.2 h | Flux enhancement [1, 8]: 0.45 | 24 h cumulative amt [1, 9]: 3.7 ± 1.0 nmol | 24 h skin conc [1, 9]: 7.3 ± 1.8 µmol/g | Flux [1, 9]: 0.5 ± 0.1 nmol/cm^2/h | Lag time [1, 9]: 15.4 ± 0.3 h | % Prodrug at time (h) ([2]; Table 15, 0.1 h): 100% | % Prodrug at time (h) ([2]; Table 15, 1 h): 35% | % Prodrug at time (h) ([2]; Table 15, 2.5 h): 7% | % Prodrug at time (h) ([2]; Table 15, 3.5 h): 5%

CCCCCc1cc(OC(=O)CN(C)C)c2c(c1)OC(C)(C)[C@@H]1CCC(C)=C[C@@H]21 [ALL00118, Δ^9-Tetrahydrocannabinol N,N-dimethylglycyl ester]
24 h skin conc ([1]; Table 3, 1:1:1 PG:ethanol:H2O donor solution, analyte: THC from prodrug): 7.1 ± 2.4 µmol/g | 24 h skin conc [1, 10]: 37.3 ± 23.2 µmol/g | 24 h skin conc [1, 4]: 65.9 ± 24.7 µmol/g | 24 h skin conc [1, 5]: 48.8 ± 30.2 µmol/g | 24 h cumulative amt [1, 6]: 5.6 ± 0.5 nmol | 24 h skin conc [1, 6]: 3.7 ± 0.6 µmol/g | Flux [1, 6]: 0.4 ± 0.0 nmol/cm^2/h | Lag time [1, 6]: 10.2 ± 0.3 h | 24 h cumulative amt [1, 7]: 5.8 ± 0.4 nmol | 24 h skin conc [1, 7]: 9.8 ± 5.2 µmol/g | Flux [1, 7]: 0.5 ± 0.0 nmol/cm^2/h | Lag time [1, 7]: 12.8 ± 0.1 h | Flux enhancement [1, 8]: 0.90 | 24 h cumulative amt [1, 9]: 11.4 ± 0.7 nmol | 24 h skin conc [1, 9]: 13.5 ± 5.8 µmol/g | Flux [1, 9]: 0.9 ± 0.1 nmol/cm^2/h | Lag time [1, 9]: 11.6 ± 0.2 h | % Prodrug at time (h) ([2]; Table 11, 0.1 h): 100% | % Prodrug at time (h) ([2]; Table 11, 1 h): 94% | % Prodrug at time (h) ([2]; Table 11, 22 h): 86% | % Prodrug at time (h) ([2]; Table 11, 24 h): 81% | % Prodrug at time (h) ([2]; Table 11, 42 h): 15% | % Prodrug at time (h) ([2]; Table 15, 0.1 h): 100% | % Prodrug at time (h) ([2]; Table 15, 1 h): 94% | % Prodrug at time (h) ([2]; Table 15, 2 h): 86% | % Prodrug at time (h) ([2]; Table 15, 2.5 h): 81% | % Prodrug at time (h) ([2]; Table 15, 24 h): 15%

CCCCCc1cc(OC(=O)OCCOCCOCCOCCOC)c2c(c1)OC(C)(C)[C@@H]1CCC(C)=C[C@@H]21 [ALL00119, Δ^9-Tetrahydrocannabinol 3,6,9,12-tetraoxatridecyl carbonate]
24 h skin conc [1, 11]: 13.6 ± 7.5 µmol/g | 24 h skin conc ([1]; Table 9, 2.36:1.18:1 pH = 5.5 PG:ethanol:H2O donor solution, total THC equivalents (THC and/or prodrug)): 13.6 ± 7.5 µmol/g | % Prodrug at time (h) ([2]; Table 11, 0.1 h): 100% | % Prodrug at time (h) ([2]; Table 11, 1 h): 82% | % Prodrug at time (h) ([2]; Table 11, 22 h): 64% | % Prodrug at time (h) ([2]; Table 11, 24 h): 51% | % Prodrug at time (h) ([2]; Table 11, 42 h): 0%

CCCCCc1cc(OC(=O)C2CCCN2)c2c(c1)OC(C)(C)[C@@H]1CCC(C)=C[C@@H]21 (stereo partly drawn) [ALL00125, Δ^9-Tetrahydrocannabinol prolyl ester]
% Prodrug at time (h) ([2]; Table 11, 0.1 h): 100% | % Prodrug at time (h) ([2]; Table 11, 2 h): 77% | % Prodrug at time (h) ([2]; Table 11, 5 h): 55% | % Prodrug at time (h) ([2]; Table 11, 22 h): 0% | % Prodrug at time (h) ([2]; Table 11, 24 h): 0% | % Prodrug at time (h) ([2]; Table 11, 42 h): 0%

CCCCCc1cc(OC(=O)OCCCCN)c2c(c1)OC(C)(C)[C@@H]1CCC(C)=C[C@@H]21 [ALL00127, Δ^9-Tetrahydrocannabinol 4-aminobutyl carbonate]
% Prodrug at time (h) ([2]; Table 15, 0.1 h): 100% | % Prodrug at time (h) ([2]; Table 15, 1 h): 100% | % Prodrug at time (h) ([2]; Table 15, 2.5 h): 91% | % Prodrug at time (h) ([2]; Table 15, 3.5 h): 85%

CCCCCc1cc(OC(=O)[C@H](O)CO)c2c(c1)OC(C)(C)[C@@H]1CCC(C)=C[C@@H]21 [ALL00144, THC (R)-2,3-dihydroxypropanoate]
24 h cumulative amt [1, 12]: 137.9 ± 55.2 nmol | 24 h skin conc [1, 12]: 65.5 ± 39.5 µmol/g | Flux [1, 12]: 8.6 ± 3.4 nmol/cm^2/h | Lag time [1, 12]: 7.2 ± 0.1 h

CCCCCc1cc(O)c2c(c1)OC(C)(C)[C@@H]1CCC(C)=C[C@@H]21 [Δ^9-tetrahydrocannabinol, reference compound]
24 h cumulative amt ([1]; Table 2, 100% PG donor solution): 6.91 ± 2.1 nmol | 24 h skin conc [1, 3]: 74.8 ± 15.5 µmol/g | 24 h cumulative amt [1, 13]: 9.0 ± 5.9 nmol | Flux [1, 13]: 0.93 ± 0.58 nmol/cm^2/h | Lag time [1, 13]: 13.0 ± 1.8 h | 24 h skin conc [1, 10]: 59.4 ± 30.5 µmol/g | 24 h cumulative amt ([1]; Table 4, gel formulation): 1.5 ± 0.3 nmol | Flux ([1]; Table 4, gel formulation): 0.14 ± 0.03 nmol/cm^2/h | Lag time ([1]; Table 4, gel formulation): 11.2 ± 2.7 h | 24 h skin conc [1, 5]: 100.4 ± 5.8 µmol/g | 24 h cumulative amt [1, 14]: 6.0 ± 2.1 nmol | 24 h skin conc [1, 14]: 133.8 ± 52.3 µmol/g | Flux [1, 14]: 0.67 ± 0.15 nmol/cm^2/h | Lag time [1, 14]: 8.9 ± 7.2 h | 24 h cumulative amt [1, 15]: 9.4 ± 0.2 nmol | 24 h skin conc [1, 15]: 24.1 ± 5.2 µmol/g | Flux [1, 15]: 0.70 ± 0.01 nmol/cm^2/h | Lag time [1, 15]: 6.9 ± 0.2 h | 24 h cumulative amt [1, 16]: 28.6 ± 3.2 nmol | 24 h skin conc [1, 16]: 17.4 ± 11.6 µmol/g | Flux [1, 16]: 1.79 ± 0.39 nmol/cm^2/h | Lag time [1, 16]: 6.4 ± 1.6 h | 24 h cumulative amt [1, 17]: 43.1 ± 4.8 nmol | 24 h skin conc [1, 17]: 75.2 ± 33.1 µmol/g | Flux [1, 17]: 3.1 ± 0.2 nmol/cm^2/h | Lag time [1, 17]: 9.0 ± 2.9 h | 24 h cumulative amt [1, 18]: 10.7 ± 2.1 nmol | 24 h skin conc [1, 18]: 40.9 ± 14.7 µmol/g | Flux [1, 18]: 0.62 ± 0.23 nmol/cm^2/h | Lag time [1, 18]: 5.3 ± 3.3 h | 24 h cumulative amt [1, 11]: 16.3 ± 7.3 nmol | 24 h skin conc [1, 11]: 16.1 ± 0.5 µmol/g | Flux [1, 11]: 1.3 ± 0.5 nmol/cm^2/h | Lag time [1, 11]: 11.4 ± 0.6 h | 24 h cumulative amt [1, 19]: 33.6 ± 11.2 nmol | 24 h skin conc [1, 19]: 7.4 ± 0.6 µmol/g | Flux [1, 19]: 2.7 ± 1.1 nmol/cm^2/h | Lag time [1, 19]: 10.8 ± 1.4 h | 24 h cumulative amt [1, 20]: 3.1 ± 0.8 nmol | 24 h skin conc [1, 20]: 3.6 ± 1.7 µmol/g | Flux [1, 20]: 0.17 ± 0.02 nmol/cm^2/h | Lag time [1, 20]: 4.6 ± 3.2 h | 24 h cumulative amt [1, 7]: 16.3 ± 0.3 nmol | 24 h skin conc [1, 7]: 6.1 ± 1.9 µmol/g | Flux [1, 7]: 1.0 ± 0.3 nmol/cm^2/h | Lag time [1, 7]: 5.8 ± 5.9 h | 24 h cumulative amt [1, 21]: 53.3 ± 0.0 nmol | 24 h skin conc [1, 21]: 17.4 ± 9.2 µmol/g | Flux [1, 21]: 3.2 ± 0.0 nmol/cm^2/h | Lag time [1, 21]: 6.2 ± 0.0 h | 24 h cumulative amt [1, 12]: 29.8 ± 3.3 nmol | 24 h skin conc [1, 12]: 23.3 ± 1.7 µmol/g | Flux [1, 12]: 2.0 ± 0.3 nmol/cm^2/h | Lag time [1, 12]: 8.7 ± 0.3 h | 24 h cumulative amt [1, 22]: 15.7 ± 4.5 nmol | 24 h skin conc [1, 22]: 8.5 ± 3.5 µmol/g | Flux [1, 22]: 1.1 ± 0.3 nmol/cm^2/h | Lag time [1, 22]: 9.0 ± 0.7 h
